Entries after “also recorded” stand apart in the source; their conditions may differ.
Test system: Ba/F3-FLT3-D835Y cells
Assay: not given
Conditions: in 24-72 hours
Protocol: (§1) To search for FLT3-targeted compounds, the applicant screened the inhibitory effects of several compounds on two different kinds of assays. • Tyrosine protein kinase assays with purified GST-Flt-3 were carried in a final volume of 30 μL containing 200-1800 ng of enzyme protein. The activity was assayed in the presence or absence of inhibitors, by measuring the incorporation of ^33P from [γ^33P] ATP into appropriate substrates. […] Cell lines expressing two different forms of mutated, activated FLT3 are used: Ba/F3-FLT3-ITD cells expressing a FLT3 mutant with an “Internal Tandem Duplication” (ITD) within the juxtamembrane domain of the receptor. Ba/F3-FLT3-D835Y cells expressing an FLT3 receptor containing a mutation converting […] at position 835 to Tyrosine.
(§2) A cell based assay is utilised to identify inhibitors of mutant FLT3 tyrosine kinase receptors.
(§3) The cell lines used for the initial screening are sublines of Ba/F3 cells that are engineered to express mutant or over-express wild-type (non-mutated) FLT3 following infection with a retrovirus expressing appropriate FLT3 cDNAs. The parent cell line, Ba/F3 is dependent on interleukin-3 for proliferation, and when deprived of IL-3, the cells rapidly cease proliferation and die. The retrovirus expresses FLT3 from the retrovirual LTR and the neo gene from an IRES site.

| Compound | G1 cell cycle arrest and apoptosis |
| --- | --- |
| CO[C@@H]1[C@H](N(C)C(=O)c2ccccc2)C[C@H]2O[C@]1(C)n1c3ccccc3c3c4c(c5c6ccccc6n2c5c31)C(=O)NC4 [MIDOSTAURIN, N-[(9S,10R,11R,13R)-2,3,10,11,12,13-hexahydro-10-methoxy-9-methyl-1-oxo-9,13-epoxy-1H,9H-diindolo[1,2,3-gh:3′,2′,1′-Im]pyrrolo[3,4-j][1,7]benzodiazonin-11-yl]-N-methylbenzamide] | induced both G1 cell cycle arrest and apoptosis |

Test system: Ba/F3-FLT3-ITD cells
Assay: not given
Conditions: in 24-72 hours
Protocol: as §1, §2, §3

| Compound | G1 cell cycle arrest and apoptosis |
| --- | --- |
| CO[C@@H]1[C@H](N(C)C(=O)c2ccccc2)C[C@H]2O[C@]1(C)n1c3ccccc3c3c4c(c5c6ccccc6n2c5c31)C(=O)NC4 [MIDOSTAURIN, N-[(9S,10R,11R,13R)-2,3,10,11,12,13-hexahydro-10-methoxy-9-methyl-1-oxo-9,13-epoxy-1H,9H-diindolo[1,2,3-gh:3′,2′,1′-Im]pyrrolo[3,4-j][1,7]benzodiazonin-11-yl]-N-methylbenzamide] | induced both G1 cell cycle arrest and apoptosis |

Test system: human leukemia and lymphoma cell lines that did not have mutant FLT3 receptors
Assay: Cytotoxicity against leukemia and lymphoma cell lines without mutant FLT3 receptors
Type: cell-based
Conditions: at the concentrations required to inhibit the proliferation of FLT3-dependent cell-lines

| Compound | cytotoxicity |
| --- | --- |
| CO[C@@H]1[C@H](N(C)C(=O)c2ccccc2)C[C@H]2O[C@]1(C)n1c3ccccc3c3c4c(c5c6ccccc6n2c5c31)C(=O)NC4 [MIDOSTAURIN, N-[(9S,10R,11R,13R)-2,3,10,11,12,13-hexahydro-10-methoxy-9-methyl-1-oxo-9,13-epoxy-1H,9H-diindolo[1,2,3-gh:3′,2′,1′-Im]pyrrolo[3,4-j][1,7]benzodiazonin-11-yl]-N-methylbenzamide] | not cytotoxic; also recorded: not cytoxic |

Biological target: T1, human Flt-3 (Homo sapiens, UniProt P36888)
T1 construct: expresses the amino acid region amino acids 563-993 of the intra-cytoplasmic kinase domains of human Flt-3; made in house; host or cells: Sf9 insect cells (baculovirus, pFbacG01 donor vector)
T1 sequence (P36888 563-993): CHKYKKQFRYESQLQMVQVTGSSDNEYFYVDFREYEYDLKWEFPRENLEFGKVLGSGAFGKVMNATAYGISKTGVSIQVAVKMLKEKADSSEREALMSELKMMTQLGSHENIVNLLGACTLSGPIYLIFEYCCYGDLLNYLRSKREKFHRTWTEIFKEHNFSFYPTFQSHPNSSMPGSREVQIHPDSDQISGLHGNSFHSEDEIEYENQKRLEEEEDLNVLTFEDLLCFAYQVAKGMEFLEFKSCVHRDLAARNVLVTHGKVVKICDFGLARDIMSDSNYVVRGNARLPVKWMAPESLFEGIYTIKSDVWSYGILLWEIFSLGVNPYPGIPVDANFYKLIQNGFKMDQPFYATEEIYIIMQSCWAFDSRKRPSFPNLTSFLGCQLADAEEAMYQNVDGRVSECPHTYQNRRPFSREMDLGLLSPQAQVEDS
Assay: Tyrosine protein kinase assay with purified GST-Flt-3 (33P incorporation)
Type: biochemical
Conditions: at a 1.0 micromolar concentration
Summary of the method: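 GST-fused Flt-3 cytoplasmic domain, expressed in baculovirus-infected Sf9 cells and purified, phosphorylates substrate with [γ-33P]ATP. Reaction spotted onto PVDF membranes, washed with H3PO4 and ethanol, and incorporated 33P counted by scintillation.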

| Compound | Flt3 Inhibition (percent inhibition of Flt3 kinase activity) [%] |
| --- | --- |
| (9a,10b,11b,13a)-11-[[N-Acetyl-4-O-acetyl-6-O-(1-oxooctadecyl)-1-O-(phenylmethyl)-a-muramoyl]methylamino]-2,3,10,11,12,13-hexahydro-10-methoxy-9-methyl-9,13-epoxy-1H,9H-diindolo[1,2,3-gh:3′,2′,1′-lm]pyrrolo[3,4-j][1,7]benzodiazonin-1-one [149622-62-8] | 22 |
| COC1C(N(C)C(=O)c2ccc(F)cc2)CC2OC1(C)n1c3ccccc3c3c4c(c5c6ccccc6n2c5c31)C(=O)NC4 (centres unmarked) [120685-44-1, (9a,10b,11b,13a)-4-Fluoro-N-(2,3,10,11,12,13-hexahydro-10-methoxy-9-methyl-1-oxo-9,13-epoxy-1H,9H-diindolo[1,2,3-gh:3′,2′,1′-lm]pyrrolo[3,4-j][1,7]benzodiazonin-11-yl)-N-methyl-benzamide] | 55 |
| COC1C(N(C)C(=O)c2cnccn2)CC2OC1(C)n1c3ccccc3c3c4c(c5c6ccccc6n2c5c31)C(=O)NC4 (stereo not drawn) [155848-17-2, [9S-(9a,10b,11b,13a)]-N-(2,3,10,11,12,13-Hexahydro-10-methoxy-9-methyl-1-oxo-9,13-epoxy-1H,9H-diindolo[1,2,3-gh:3′,2′,1′-lm]pyrrolo[3,4-g][1,7]benzodiazonin-11-yl)-N-methyl-pyrazinecarboxamide] | 85 |
| COC(=O)CN(C)C1CC2OC(C)(C1OC)n1c3ccccc3c3c4c(c5c6ccccc6n2c5c31)C(=O)NC4 (stereo not drawn) [120685-21-4, [9S-(9a,10b,11b,13a)]-N-(2,3,10,11,12,13-Hexahydro-10-methoxy-9-methyl-1-oxo-9,13-epoxy-1H,9H-diindolo[1,2,3-gh:3′,2′,1′-lm]pyrrolo[3,4-j][1,7]benzodiazonin-11-yl)-N-methyl-glycine, methyl ester] | 82 |
| CO[C@@H]1/C(=N/O)C[C@H]2O[C@]1(C)n1c3ccccc3c3c4c(c5c6ccccc6n2c5c31)C(=O)NC4 [126221-76-9, (9S,10R,11Z,13R)-2,3,9,10,12,13-Hexahydro-10-methoxy-9-methyl-9,13-epoxy-1H,11H-diindolo[1,2,3-gh:3′,2′,1′-lm]pyrrolo[3,4-j][1,7]benzodiazonine-1,11-dione, 11-oxime] | 83 |
| N-[(9S,10R,11R,13R)-2,3,10,11,12,13-Hexahydro-10-methoxy-9-methyl-1-oxo-9,13-epoxy-1H,9H-diindolo[1,2,3-gh:3′,2′,1′-lm]pyrrolo[3,4-j][1,7]benzodiazonin-11-yl]-2-hydroxy-N-methyl-Benzamide [178955-60-7] | 89 |
| (9a,10b,11b,13a)-11-[[N-Acetyl-1-deoxy-6-O-[(4-methylphenyl)sulfonyl]muramoyl]methylamino]-2,3,10,11,12,13-hexahydro-10-methoxy-9-methyl-, 9,13-epoxy-1H,9H-diindolo[1,2,3-gh:3′,2′,1′-lm]pyrrolo[3,4-j][1,7]benzodiazonin-1-one [149622-70-8] | 67 |
| (9a,10b,11b,13a)-11-[[N-Acetyl-6-O-(methylsulfonyl)-1-O-(phenylmethyl)-a-muramoyl]methylamino]-2,3,10,11,12,13-hexahydro-10-methoxy-9-methyl-, 9,13-epoxy-1H,9H-diindolo[1,2,3-gh:3′,2′,1′-lm]pyrrolo[3,4-j][1,7]benzodiazonin-1-one [149622-41-3] | 51 |
| COC1C(N(C)C(=O)c2ccc(C(=O)[O-])cc2)CC2OC1(C)n1c3ccccc3c3c4c(c5c6ccccc6n2c5c31)C(=O)NC4.[Na+] (stereo not drawn) [120751-44-2, [9S-(9a,10b,11b,13a)]-4-[[(2,3,10,11,12,13-Hexahydro-10-methoxy-9-methyl-1-oxo-9,13-epoxy-1H,9H-diindolo[1,2,3-gh:3′,2′,1′-lm]pyrrolo[3,4-j][1,7]benzodiazonin-11-yl)methylamino]carbonyl]-benzoic acid, monosodium salt] | 90 |
| [9S-(9a,10b,13a)]-2,3,9,10,12,13-Hexahydro-10-hydroxy-9-methyl-9,13-epoxy-1H,11H-diindolo[1,2,3-gh:3′,2′,1′-lm]pyrrolo[3,4-j][1,7]benzodiazonine-1,11-dione, 11-oxime [187457-73-4] | 89 |
| (9a,10b,11b,13a)-11-[[N-Acetyl-4-O-acetyl-6-O-(1-oxooctadecyl)-a-muramoyl]methylamino]-2,3,10,11,12,13-hexahydro-10-methoxy-9-methyl-9,13-epoxy-1H,9H-diindolo[1,2,3-gh:3′,2′,1′-lm]pyrrolo[3,4-j][1,7]benzodiazonin-1-one [149622-64-0] | 27 |
| (9a,10b,11b,13a)-11-[[N-Acetyl-4,6-O-(1-methylethylidene)-1-O-(phenylmethyl)-a-isomuramoyl]methylamino]-2,3,10,11,12,13-hexahydro-9-methyl-10-methoxy-9,13-epoxy-1H,9H-diindolo[1,2,3-gh:3′,2′,1′-lm]pyrrolo[3,4-j][1,7]benzodiazonin-1-one [149622-59-3] | 77 |
| (9a,10b,11b,13a)-11-[[N-Acetyl-1-O-(phenylmethyl)-a-isomuramoyl]methylamino]-2,3,10,11,12,13-hexahydro-10-methoxy-9-methyl-9,13-epoxy-1H,9H-diindolo[1,2,3-gh:3′,2′,1′-lm]pyrrolo[3,4-j][1,7]benzodiazonin-1-one [149713-64-4] | 76 |
| (9a,10b,11b,13a)-11-[(N-Acetyl-a-muramoyl)methylamino]-2,3,10,11,12,13-hexahydro-10-methoxy-9-methyl-9,13-epoxy-1H,9H-diindolo[1,2,3-gh:3′,2′,1′-lm]pyrrolo[3,4-j][1,7]benzodiazonin-1-one [149622-53-7] | 91 |
